# Source: patent US20260234116A1, “CYTOTOXIC EPOXYKETONE COMPOUNDS, PRECURSORS, COMPOSITIONS, AND METHODS OF USE” (Memorial Sloan-Kettering Cancer Center, priority 2023, published 2026)
# Like-named read-outs stand apart in the source and are kept apart here.
# Columns and labels:
# [1] = system: chymotrypsin-like activity of the proteasome, Jurkat cell lysates; experiment: Proteasome inhibition assay (abcam Proteasome Activity Assay Kit); assay type: biochemical; settings: 10 μM concentration, 1 h at 37° C.
# Description: Epoxyketones 12 were analyzed for proteasome inhibition using a Proteasome Activity Assay Kit (abcam ab107921). The protocol was followed as described by the manufacturer, except that the proteasome sample supplied in the kit was diluted by 10-fold more than indicated in the manual to increase the number of samples that could be analyzed per kit. Thus, the supplied proteasome sample was resuspended in 100 μL ddH2O, then further diluted with 900 μL of the supplied assay buffer. The supplied proteasome inhibitor, MG-132 (benzyl [(2S)-4-methyl-1-{[(2S)-4-methyl-1-{[(2S)-4-methyl-1-oxopentan-2-yl]amino}-1-oxopentan-2-yl]amino}-1-oxopentan-2-yl]carbamate; structure illustrated below), was also diluted 10-fold to a working concentration of 1 mM in DMSO. The epoxyketones 12 and epoxomicin positive control (Selleck Chemicals) were also diluted to working stocks of 1 mM in DMSO. Proteasome samples (99 μL) were added to a white, opaque 96-well plate (PerkinElmer, OptiPlate-96) and treated with 1 μL of compound solutions (10 μM final concentration). Samples were incubated for 1 h at 37° C. then analyzed for fluorescence (λ^ex 350 nm, λ^em 440 nm) on a plate reader (Molecular Devices Spectramax M3). Three separate assay kits were used as biological replicates. Data were normalized to the average signal from the no-inhibitor negative control. […]
# EL4 lymphoma cells = settings: reported (prepared by total synthesis); cited from earlier work
# Raji B-cell lymphoma = experiment: Cytotoxicity of epoxyketones, CellTitre-Glo, 48 h; assay type: cell-based; settings: Homo sapiens
# Description: (§1) Cytotoxicity Assays. Cancer cell lines (ATCC: U266 multiple myeloma, EL4 mouse lymphoma, Raji B-cell lymphoma) were cultured in Roswell Park Memorial Institute (RPMI) medium supplemented with 10% fetal bovine serum (FBS), 2 mM L-glutamine, 100 IU/mL penicillin, 100 μg/mL nonessential amino acids, 1 mM sodium pyruvate, and 57 μM β-mercaptoethanol. Cells (90 μL) were seeded in the inner 60 wells of an opaque-wall, clear flat-bottom 96-well plate (Corning/Falcon, 351177) at 20,000 cells per well. The outer perimeter wells were filled with 200 μL PBS to reduce evaporation in the central 60 wells. Epoxyketones 12 (20 mM in DMSO) were diluted in RPMI media to 1 mM (5% DMSO final concentration). Each epoxyketone was then diluted log-fold into 10 concentrations with 5% DMSO in RPMI. Each epoxyketone solution (10 μL) was added to the cells for a 0.5% DMSO final concentration across all wells and final epoxyketone concentrations of 100-0.005 μM. Negative control wells were treated with 10 μL of 5% DMSO in RPMI. Cells were incubated with compounds for 48 h, then cytotoxicity was measured with the CellTitre-Glo assay (Promega G9241).
# U266 multiple myeloma = experiment: Cytotoxicity of epoxyketones, CellTitre-Glo, 48 h; assay type: cell-based; settings: Homo sapiens, U-266, U266, 48 h
# Description: as §1
# EL4 mouse lymphoma = experiment: Cytotoxicity of epoxyketones, CellTitre-Glo, 48 h; assay type: cell-based; settings: EL4, 48 h
# Description: as §1
structure (smiles),measurement,setting,value
"CC(C)CCCCC(=O)N[C@@H](CO)C(=O)N[C@@H](CC(C)C)C(=O)[C@@]1(C)CO1 [Compound 12a, N-[(1S)-2-Hydroxy-1-{[(2S)-4-methyl-1-[(2R)-2-methyloxiran-2-yl]-1-oxopentan-2-yl]carbamoyl}ethyl]-6-methylheptanamide]",inhibition of proteasome activity,[1],at a level comparable to that of epoxomicin
same,IC50,EL4 lymphoma cells,260 ± 50 nM
same,IC50,Raji B-cell lymphoma; read-out: IC50,200 nM
same,IC50,Raji B-cell lymphoma; read-out: log IC50 (converted),195 nM
same,IC50,U266 multiple myeloma; read-out: IC50,230 nM
same,IC50,U266 multiple myeloma; read-out: log IC50 (converted),229 nM
same,IC50,EL4 mouse lymphoma; read-out: IC50,440 nM
same,IC50,EL4 mouse lymphoma; read-out: log IC50 (converted),407 nM
